Laboratory results from US20120022045A1, “BRIDGED COMPOUNDS AS HIV INTEGRASE INHIBITORS” (priority 2009, published 2012).
Like-named read-outs stand apart in the source and are kept apart here.

Tests used:
HIV-1 = assay: Inhibition of acute HIV-1 infection of T-lymphoid cells (spread assay); assay type: cell-based; details: 10% FBS, read-out: IC95 (nM) in the presence of 10% FBS
Procedure: Assays for the inhibition of acute HIV-1 infection of T-lymphoid cells were conducted in accordance with Vacca, J. P. et al., Proc. Natl. Acad. Sci. USA 1994, 91: 4096.

HIV-1 wild type IIIB = assay: Single cycle infectivity assay in HeLa P4-2 cells, wild type virus; assay type: cell-based
Summary of the method: (§1)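 HeLa P4-2 cells used in a single-cycle acute HIV-1 infection assay. Wild-type IIIB or integrase mutant viruses made by site-directed mutagenesis of proviral plasmids and produced by transfection of 293T cells.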

HIV-1 integrase = molecular target: T1, HIV-1 integrase (Human immunodeficiency virus type 1 group M subtype B, UniProt P04585); assay: HIV integrase assay: strand transfer catalyzed by recombinant integrase; assay type: biochemical; details: strand transfer activity
T1 construct: strand transfer activity of HIV-1 integrase
Procedure: Assays for the strand transfer activity of HIV-1 integrase were conducted in accordance with WO 02/30930 for recombinant integrase.
Further description on conducting the assay using preassembled complexes is found in Wolfe, A. L. et al., J. Virol. 1996, 70: 1424-1432, Hazuda et al., J. Virol. 1997, 71: 7005-7011; Hazuda et al., Drug Design and Discovery 1997, 15: 17-24; and Hazuda et al., Science 2000, 287: 646-650.

[1] = test system: HIV-1 integrase mutant virus G140S/Q148H; assay: Single cycle infectivity assay in HeLa P4-2 cells, integrase mutant G140S/Q148H virus; assay type: cell-based; details: fold shift in IC50 versus wild type IIIB
Summary of the method: as §1

[2] = test system: HIV-1 integrase mutant virus N155H; assay: Single cycle infectivity assay in HeLa P4-2 cells, integrase mutant N155H virus; assay type: cell-based; details: fold shift in IC50 versus wild type IIIB
Summary of the method: as §1

[3] = test system: HIV-1 integrase mutant virus Y143R; assay: Single cycle infectivity assay in HeLa P4-2 cells, integrase mutant Y143R virus; assay type: cell-based; details: fold shift in IC50 versus wild type IIIB
Summary of the method: as §1

[4] = test system: HIV-1 integrase mutant virus Q148R; assay: Single cycle infectivity assay in HeLa P4-2 cells, integrase mutant Q148R virus; assay type: cell-based; details: fold shift in IC50 versus wild type IIIB
Summary of the method: as §1

[5] = Human immunodeficiency virus 1, T-lymphoid
[6] = Human immunodeficiency virus 1, IIIB, HeLaP4-2, wild type IIIB

Compound | IC95 (HIV-1) [nM] | IC50 (HIV-1 wild type IIIB; wild type IIIB) [nM] | IC50 (HIV-1 integrase) [nM] | G140S/Q148H (shift) [1] [fold] | N155H (shift) [2] [fold] | Y143R (shift) [3] [fold] | Q148R (shift) [4] [fold] | IC95 (HIV-1; [5]) [nM] | IC50 (HIV-1 wild type IIIB; [6]) [nM]
CC1C2CCC(N(C)C(=O)C(=O)N(C)C)(CC2)c2nc(C(=O)NCc3ccc(F)cc3)c(O)c(=O)n21 (single isomer, unassigned) [Example 13B, N-(4-{[(4-fluorobenzyl)amino]carbonyl}-5-hydroxy-8-methyl-6-oxo-3,7-diazatricyclo[7.2.2.0^2,7]trideca-2,4-dien-1-yl)-N′,N′,N″-trimethylethanediamide] | 20 | 8 | 13 | >209 | 30 | 7 | 57 |  | 
CN(C)C(=O)C(=O)N(C)C12CCC(CC1)Cn1c2nc(C(=O)NCc2ccc(F)cc2)c(O)c1=O [Example 1, N-(4-{[(4-fluorobenzyl)amino]carbonyl}-5-hydroxy-6-oxo-3,7-diazatricyclo[7.2.2.0^2,7]trideca-2,4-dien-1-yl)-N′,N′,N″-trimethylethanediamide] |  |  | 13 | 15 | 3 | 2 | 2 | 6.2 | 7.2
Cc1cc(CNC(=O)c2nc3n(c(=O)c2O)CC2CCC3(N(C)C(=O)C(=O)N(C)C)CC2)ccc1F [Example 2, N-(4-{[(4-fluoro-3-methylbenzyl)amino]carbonyl}-5-hydroxy-6-oxo-3,7-diazatricyclo[7.2.2.0^2,7]trideca-2,4-dien-1-yl)-N,N′,N″-trimethylethanediamide] |  |  | 15 | 5 | 2 | 1 | 2 | 7.2 | 4
CN(C(=O)C(=O)N1CCOCC1)C12CCC(CC1)Cn1c2nc(C(=O)NCc2ccc(F)cc2)c(O)c1=O [Example 3, N-(4-fluorobenzyl)-5-hydroxy-1-{methyl[morpholin-4-yl(oxo)acetyl]amino}-6-oxo-3,7-diazatricyclo[7.2.2.0^2,7]trideca-2,4-diene-4-carboxamide] |  |  | 32 | 9 | 2 | 1 | 2 | 11 | 31
CN1CCN(C(=O)C(=O)N(C)C23CCC(CC2)Cn2c3nc(C(=O)NCc3ccc(F)cc3)c(O)c2=O)CC1 [Example 4] |  |  | 14 | 4 | 4 | 1 | 3 | 39 | 33
CN(C)C(=O)C(=O)NC12CCC(CC1)Cn1c2nc(C(=O)NCc2ccc(F)cc2)c(O)c1=O [Example 5, N′-{2-[(4-fluorobenzyl)carbamoyl]-3-hydroxy-4-oxo-6,7,8,9-tetrahydro-7,10-ethanopyrimido[1,2-a]azepin-10(4H)-yl}-N,N-dimethylethanediamide] |  |  | 33 | 9 | 2 | 1 | 1 | < 3.9 | 6.7
O=C(NC12CCC(CC1)Cn1c2nc(C(=O)NCc2ccc(F)cc2)c(O)c1=O)C(=O)N1CCOCC1 [Example 6, N-(4-Fluorobenzyl)-3-hydroxy-10-{[morpholin-4-yl(oxo)acetyl]amino}-4-oxo-4,6,7,8,9,10-hexahydro-7,10-ethanopyrimido[1,2-a]azepine-2-carboxamide] |  |  | 37 | 5 | 2 | 1 | 2 | 5.3 | 9
N-5-{[(4-fluorolbenzyl)amino]carbonyl}-4-hydroxy-3-oxo-2,6-diazatricyclo[6.3.2.0^2,7]trideca-4,6-dien-8-yl)-N,N′,N′-trimethylethanediamide [Example 24B] | 7.4 | 7 | 24 | 6 | 3 | 2 | 1 |  | 
